Data as given in patent US20080234236A1, “REDUCTION OF ADVERSE EVENTS AFTER PERCUTANEOUS INTERVENTION BY USE OF A THROMBIN RECEPTOR ANTAGONIST” (priority 2007, published 2008).
“Also recorded” adds a separate entry of the source.

Columns and labels:
[1] = Pharmacokinetics: blood concentration of SCH 530348; assay type: in vivo, humans
Experimental: As the dose of SCH 530348 increased, the onset of platelet aggregation occurred at earlier sampling time points and maximum observed inhibition of aggregation increased, with 20 and 40 mg causing consistent maximum (>80%) inhibition of TRAP-induced platelet aggregation at 1-2 hours post dose. […] The duration of these pharmacodynamic effects is consistent with the drug's long elimination half-life.
This level of platelet inhibition is believed to be sufficient to lower the risks of adverse clinical events associated with PCI. […] The term “risk-abated PCI procedures” will be understood to mean those PCI procedures that are undertaken after the patient has achieved at least 80% platelet inhibition. This represents a marked improvement over the 4-6 hour period before risk-abated PCI can be performed using the current standard of care, i.e., clopidogrel and aspirin without a thrombin receptor antagonist.

[2] = Phase 2 study (P03573): death, MACE and other clinical events in primary (PCI) cohort; assay type: in vivo, humans; conditions: for Death/MACE, patients (%) / Death/MACE/Stroke, patients (%) / Death/MI, patients (%) / MACE, patients (%) / MI, patients (%) / Recurrent ischemia, patients (%) / Revascularization, patients (%) / Death, patients (%) / Stroke, patients (%): primary cohort (PCI); for Death/MACE, patients (%) / Death/MACE/Stroke, patients (%) / Death/MI, patients (%) / MACE, patients (%) / MI, patients (%) / Recurrent ischemia, patients (%) / Revascularization, patients (%): 60 days
From the text: The behavior of SCH 530348 in humans was further studied in a Phase 2 clinical development program. A key safety issue for SCH 530348 is the potential for incremental bleeding when added to standard of care with other oral antiplatelet therapies as well as parenteral antithrombotics. Therefore, a single Phase 2 study (P03573) was completed to evaluate the safety of SCH 530348 in patients at high risk of bleeding events, i.e., those patients undergoing non-emergent PCI (percutaneous coronary intervention). The goals of this Phase 2 study were to: • Evaluate the safety of SCH 530348 in addition to standard of care with respect to TIMI major and minor bleeding; and, • Observe the effects of SCH 530348 on major adverse cardiac events (“MACE”) in patients successfully completing an interventional procedure.
The primary endpoint (directed to evaluating safety) was the combined […] (“TIMI”) major and TIMI minor bleeding over sixty days in the primary evaluable cohort. Though the study was not powered to evaluate efficacy, a secondary endpoint (directed to evaluating efficacy) was the incidence of the composite of death and major adverse cardiac events (“MACE”) in the primary cohort. MACE includes myocardial infarction, urgent revascularization, and ischemia requiring hospitalization. Pharmacokinetics and pharmacodynamics were assessed at selected sites across the treatment groups. Other secondary endpoints included the incidence of TIMI major and minor bleeding in the secondary evaluable cohort i.e., those individuals who received the loading dose only.
Although the Phase 2 study was neither designed nor powered to assess efficacy, i.e., reduction of clinical event rates, there was a 31% relative reduction observed in the composite of death and major adverse cardiac events (MACE) at sixty days in the SCH 530348 group (5.9%) versus placebo (8.6%) in the primary cohort. This difference was not statistically significant. All clinical events were adjudicated by a blinded Clinical Events Committee.

[3] = Monkey bleeding liability study: forearm template bleeding time; assay type: in vivo, cynomolgus monkeys; conditions: for Template bleeding time: anesthetized monkeys, single oral dose (SCH 530348 1 mg/kg, ASA 10 mg/kg, clopidogrel 2 mg/kg), mean ± SEM
Experimental: Any novel antiplatelet agent should optimally avoid incremental bleeding risk relative to the current standard of care. The bleeding risk of SCH 530348 was evaluated in anesthetized cynomoigus monkeys in which SCH 530348 was administered alone and along with aspirin and clopidogrel. Bleeding assessment was conducted following administration of single doses of SCH 530348 (1 mg/kg) and/or aspirin (10 mg/kg, ASA) and clopidogrel (2 mg/kg). Four groups of monkeys were dosed orally with either vehicle (the medium used to dissolve the drug, 0.4% methylcellulose) or drug (n=5-6/group): Group I: vehicle, Group II: SCH 530348 (1 mg/kg), Group III ASA (10 mg/kg) plus clopidogrel (2 mg/kg) and Group IV: combination of SCH 530348, ASA plus clopidogrel. Doses of various drugs used inhibited their respective platelet pathways by >90% as assessed by ex-vivo platelet aggregation in whole blood. Two hours after dosing, animals were anesthetized and bleeding risk was assessed by forearm template bleeding time and surgical blood loss from a femoral incision site.
Template bleeding time was assessed as follows. The forearm of the monkey was shaved of hair and a precision cut (5 mm long and 1 mm deep) was made on the skin with a Simplate® bleeding device (Organon Tehnika), The duration of bleeding by blotting blood onto a filter paper at the incision site was determined. When blood was no longer absorbed onto the filter paper, bleeding was considered “stopped.” The time from initiation of the cut to when bleeding stopped is defined as the template bleeding time. In these studies bleeding time was assessed on two occasions at approximately 3.5 and 4 hrs after oral dosing with the drug.

[4] = tested on: platelets; assay: ADP-induced platelet aggregation; assay type: in vivo, humans; conditions: loading and maintenance doses
Experimental: (§1) A pharmacodynamic substudy incorporating light aggregometry was performed under stringent physiologic conditions and read by a central core laboratory. […] The term “therpeutically effective amount of a thrombin receptor antagonist” will be understood to mean that quantity of the thrombin receptor antagonist sufficient to achieve at least 80% inhibition of TRAP mediated platelet aggregation.
(§2) Similarly, there is no effect on arachidonic acid (“AA”) -induced platelet aggregation (see FIGS. 16 and 17) or collagen-induced platelet aggregation (see FIGS. 18-21).

[5] = Bleeding time by modified Ivy method; design: species or system humans; conditions: in vivo
[6] = tested on: platelets; assay: Collagen-induced platelet aggregation; assay type: in vivo, humans; conditions: collagen 5 and 50 μg/ml; loading and maintenance doses
Experimental: as §1, §2

[7] = primary cohort, 40 mg loading dose

CCOC(=O)N[C@@H]1CC[C@@H]2[C@@H](C1)C[C@H]1C(=O)O[C@H](C)[C@H]1[C@H]2/C=C/c1ccc(-c2cccc(F)c2)cn1.O=S(=O)(O)O [SCH 530348, ethyl [(1R,3aR,4aR,6R,8aR,9S,9aS)-9-[(E)-2-[5-(3-fluorophenyl)-2-pyridinyl]ethenyl]-dodecahydro-1-methyl-3-oxonaphtho[2,3-c]furan-6-yl] carbamate bisulfate]
Time to peak blood concentration levels ([1]; 40 mg loading dose): in as little as one hour | Elimination half-life ([1]; in vivo): long | Death/MACE, patients (%) ([2]; 10 mg loading dose): 8.5% | Death/MACE/Stroke, patients (%) ([2]; 10 mg loading dose): 9.3% | Death/MI, patients (%) ([2]; 10 mg loading dose): 5.4% | MACE, patients (%) ([2]; 10 mg loading dose): 8.5% | MI, patients (%) ([2]; 10 mg loading dose): 5.4% | Recurrent ischemia, patients (%) ([2]; 10 mg loading dose): 0.8% | Revascularization, patients (%) ([2]; 10 mg loading dose): 2.3% | Death/MACE, patients (%) ([2]; 20 mg loading dose): 5% | Death/MACE/Stroke, patients (%) ([2]; 20 mg loading dose): 5.0% | Death/MI, patients (%) ([2]; 20 mg loading dose): 4.2% | MACE, patients (%) ([2]; 20 mg loading dose): 5.0% | MI, patients (%) ([2]; 20 mg loading dose): 4.2% | Revascularization, patients (%) ([2]; 20 mg loading dose): 0.8% | Death/MACE, patients (%) ([2]; 40 mg loading dose): 4.6% | Death/MACE/Stroke, patients (%) ([2]; 40 mg loading dose): 4.6% | Death/MI, patients (%) ([2]; 40 mg loading dose): 4.0% | MACE, patients (%) ([2]; 40 mg loading dose): 4.0% | MI, patients (%) ([2]; 40 mg loading dose): 3.5% | Revascularization, patients (%) ([2]; 40 mg loading dose): 1.2% | Death/MACE, patients (%) ([2]; All SCH 530348): 5.9% | Death/MACE/Stroke, patients (%) ([2]; All SCH 530348): 6.2% | Death/MI, patients (%) ([2]; All SCH 530348): 4.5% | MACE, patients (%) ([2]; All SCH 530348): 5.7% | MI, patients (%) ([2]; All SCH 530348): 4.3% | Recurrent ischemia, patients (%) ([2]; All SCH 530348): 0.2% | Revascularization, patients (%) ([2]; All SCH 530348): 1.4% | Death, patients (%) ([2]; 10 mg loading dose): 0.8% | Stroke, patients (%) ([2]; 10 mg loading dose): 0.8% | Death, patients (%) ([2]; 40 mg loading dose): 0.6% | Death, patients (%) ([2]; All SCH 530348): 0.5% | Stroke, patients (%) ([2]; All SCH 530348): 0.2% | Reduction in MI versus placebo [2, 7]: 52% | Relative reduction in composite of death and MACE versus placebo [2, 7]: 47% | Relative reduction in composite of death and MACE at sixty days versus placebo ([2]; primary cohort, SCH 530348 group (all doses), not statistically significant): 31% | Bleeding risk / prolongation of bleeding ([3]; SCH 530348 1 mg/kg alone or with aspirin and clopidogrel, 1 mg/kg): no bleeding risk; also recorded: no prolongation of bleeding | Template bleeding time [3]: 4.9 min | Template bleeding time ([3]; listed as Group II): 4.9 ± 0.99 min | Effect on ADP-induced platelet aggregation [4]: no effect | Increasing bleeding time as measured by a modified Ivy method [5]: without | Effect on collagen-induced platelet aggregation [6]: no effect
